# From patent US20230339970A1, “CASEIN KINASE 1 DELTA MODULATORS” (priority 2020, published 2023)
# pIC50: −log10 of the molar value.
# Tests used:
# human CSNK1D = molecular target: T1, human CSNK1D (Homo sapiens, UniProt P48730); assay: Whole Cell nBRET CSNK1D Binding Assay; conditions: living CHO cells stably expressing human CSNK1D tagged with nanoluciferase; NanoBret tracer 130 nM; 2 hours at 37 C
# T1 construct: expressed in transfected cells
# [1] = molecular target: T2, human recombinant GST cleaved CSNK1D (Homo sapiens, UniProt P48730); assay: Purified Enzyme Assay (ADP-Glo CSNK1D Kinase Assay); format: biochemical; conditions: 2 nM CSNK1D; peptide substrate 150 μM; ATP 20 μM; 45 minutes at room temperature
# T2 construct: GST (cleaved yes); purchased University of Dundee clone DU 19064
# Summary of the method: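 GST-cleaved human recombinant CSNK1D phosphorylates peptide PLSRTL-pS-VASLPGL with ATP; compounds added in dose-response, 45 min at room temperature. ADP formed measured by ADP-Glo luminescence and converted to percent activity.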
# T2 sequence (P48730 whole entry): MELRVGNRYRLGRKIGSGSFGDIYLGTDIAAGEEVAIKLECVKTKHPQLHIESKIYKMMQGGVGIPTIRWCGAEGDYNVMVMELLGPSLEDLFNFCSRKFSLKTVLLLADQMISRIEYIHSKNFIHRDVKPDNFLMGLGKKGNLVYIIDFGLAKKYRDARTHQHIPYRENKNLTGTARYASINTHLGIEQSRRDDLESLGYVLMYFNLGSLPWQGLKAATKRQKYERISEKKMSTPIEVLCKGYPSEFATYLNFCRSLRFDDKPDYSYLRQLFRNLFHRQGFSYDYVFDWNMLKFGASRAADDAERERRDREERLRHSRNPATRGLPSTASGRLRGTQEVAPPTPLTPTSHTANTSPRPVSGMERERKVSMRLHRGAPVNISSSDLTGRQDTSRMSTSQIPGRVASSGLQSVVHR
# T1 sequence (P48730 whole entry): as above
pIC50 (human CSNK1D),pIC50 [1],SMILES
6.60,7.54,"C[C@H]1Cn2nc(-c3ccc(F)cn3)c(-c3ccnc4[nH]ncc34)c2CO1 (single isomer, unassigned) [Example 86, (*S)-2-(5-Fluoro-2-pyridyl)-6-methyl-3-(1H-pyrazolo[3,4-b]pyridin-4-yl)-6,7-dihydro-4H-pyrazolo[5,1-c][1,4]oxazine]"
< 5.00,5.78,"Cc1n[nH]c2ncc(F)c(-c3c(-c4ccc(F)cn4)nn4c3CC[C@H]3[C@@H]4C3(F)F)c12 (single isomer, unassigned) [Example 359, (5a*S,6a*R)-6,6-Difluoro-3-(5-fluoro-3-methyl-1H-pyrazolo[3,4-b]pyridin-4-yl)-2-(5-fluoropyridin-2-yl)-5,5a,6,6a-tetrahydro-4H-cyclopropa[e]pyrazolo[1,5-a]pyridine]"
6.47,7.28,"Cc1nc2[nH]nc(C)c2c(-c2c(-c3ccc(F)cn3)nn3c2CC2(C3)CC2(F)F)c1F (single isomer, unassigned) [Example 266, (*S)-1′1l′-Difluoro-3-(5-fluoro-3,6-dimethyl-1H-pyrazolo[3,4-b]pyridin-4-yl)-2-(5-fluoro-2-pyridyl)spiro[4,6-dihydropyrrolo[1,2-b]pyrazole-5,2′-cyclopropane]]"
6.94,8.40,"CC1(C)Cc2c(-c3cc(C(F)F)nc4[nH]ncc34)c(-c3ccc(F)cn3)nn2C1 [Example 239, 6-(Difluoromethyl)-4-[2-(5-fluoro-2-pyridyl)-5,5-dimethyl-4,6-dihydropyrrolo[1,2-b]pyrazol-3-yl]-1H-pyrazolo[3,4-b]pyridine]"
5.62,6.69,"Fc1ccc(-c2nn3c(c2-c2ccncc2)COCC3)nc1 [Example 74, 2-(5-Fluoro-2-pyridyl)-3-(4-pyridyl)-6,7-dihydro-4H-pyrazolo[5,1-c][1,4]oxazine]"
7.70,8.70,"CC(=O)Nc1cc(-c2c(-c3ccc(F)cn3)nn3c2CC[C@H]2[C@@H]3C2(F)F)ccn1 (stereo in doubt) [Example 351, N-(4-((5a*S,6a*R)-6,6-Difluoro-2-(5-fluoropyridin-2-yl)-5,5a,6,6a-tetrahydro-4H-cyclopropa[e]pyrazolo[1,5-a]pyridin-3-yl)pyridin-2-yl)acetamide]"
6.17,7.31,"Fc1ccc(-c2nn3c(c2-c2ccnc4[nH]ncc24)C[C@H]2C[C@H]23)nc1 [Example 25, (4aR,5aR)-2-(5-Fluoropyridin-2-yl)-3-(1H-pyrazolo[3,4-b]pyridin-4-yl)-4,4a,5,5a-tetrahydrocyclopropa[4,5]pyrrolo[1,2-b]pyrazole]"
< 5.00,6.64,"CC1(O)COCc2c(-c3ccnc4[nH]ncc34)c(-c3ccc(F)cn3)nn2C1 (stereo not shown) [Example 484, 2-(5-Fluoropyridin-2-yl)-7-methyl-3-(1H-pyrazolo[3,4-b]pyridin-4-yl)-7,8-dihydro-4H,6H-pyrazolo[5,1-c][1,4]oxazepin-7-ol]"
9.00,9.00,"CC(=O)Nc1cc(-c2c(-c3ccc(F)cc3)nn3c2CC[C@H]2[C@@H]3C2(F)F)ccn1 (stereo in doubt) [Example 350, N-(4-((5a*S,6a*R)-6,6-Difluoro-2-(4-fluorophenyl)-5,5a,6,6a-tetrahydro-4H-cyclopropa[e]pyrazolo[1,5-a]pyridin-3-yl)pyridin-2-yl)acetamide]"
7.64,8.70,"[2H]C([2H])([2H])[C@@]1(C([2H])([2H])F)CCc2c(-c3c(F)cnc4[nH]ncc34)c(-c3ccc(F)cn3)nn2C1 (single isomer, unassigned) [Example 294, (*R)-5-Fluoro-4-(6-(fluoromethyl-d2)-2-(5-fluoropyridin-2-yl)-6-(methyl-d3)-4,5,6,7-tetrahydropyrazolo[1,5-a]pyridin-3-yl)-1H-pyrazolo[3,4-b]pyridine]"
5.73,7.14,"Fc1ccc(-c2nn3c(c2-c2ccnc4[nH]ncc24)CCC(F)(COC(F)F)C3)nc1 (single isomer, unassigned) [Example 315, (*R)-4-(6-((Difluoromethoxy)methyl)-6-fluoro-2-(5-fluoropyridin-2-yl)-4,5,6,7-tetrahydropyrazolo[1,5-a]pyridin-3-yl)-1H-pyrazolo[3,4-b]pyridine]"
7.15,8.70,"Fc1ccc(-c2nn3c(c2-c2c(F)cnc4[nH]ncc24)C[C@@H]2C[C@@H]23)nc1 [Example 272, (4aS,5aS)-3-(5-Fluoro-1H-pyrazolo[3,4-b]pyridin-4-yl)-2-(5-fluoropyridin-2-yl)-4,4a,5,5a-tetrahydrocyclopropa[4,5]pyrrolo[1,2-b]pyrazole]"
9.00,9.00,"Fc1ccc(-c2nn3c(c2-c2ccnc4[nH]ncc24)OCC2(C3)CC2(F)F)cc1 (single isomer, unassigned) [Example 476, (*S)-2,2-Difluoro-2′-(4-fluorophenyl)-3′-1H-pyrazolo[3,4-b]pyridin-4-yl)-5′H,7′H-spiro[cyclopropane-1,6′-pyrazolo[5,1-b][1,3]oxazine]]"
6.60,7.27,"Cc1cc(-c2c(-c3ccc(F)cn3)nn3c2CO[C@@](C)(C(F)(F)F)C3)c2cn[nH]c2n1 (single isomer, unassigned) [Example 180, (*R)-2-(5-Fluoropyridin-2-yl)-6-methyl-3-(6-methyl-1H-pyrazolo[3,4-b]pyridin-4-yl)-6-(trifluoromethyl)-6,7-dihydro-4H-pyrazolo[5,1-c][1,4]oxazine]"
6.95,7.92,"Fc1ccc(-c2nn3c(c2-c2ccncc2)OCCC3)cc1 [Example 438, 2-(4-Fluorophenyl)-3-(4-pyridyl)-6,7-dihydro-5H-pyrazolo[5,1-b][1,3]oxazine]"
6.52,7.82,"Fc1ccc(-c2nn3c(c2-c2ccnc4[nH]ncc24)CO[C@@H](C2CC2)C3)nc1 (single isomer, unassigned) [Example 109, (*S)-6-Cyclopropyl-2-(5-fluoropyridin-2-yl)-3-(1H-pyrazolo[3,4-b]pyridin-4-yl)-6,7-dihydro-4H-pyrazolo[5,1-c][1,4]oxazine]"
5.08,6.78,"Fc1ccc(-c2nn3c(c2-c2ccnc4[nH]ncc24)COC2(C3)CC2(F)F)nc1 (single isomer, unassigned) [Example 434, (*S)-1′. 1′-Difluoro-2-(5-fluoro-2-pyridyl)-3-(1H-pyrazolo[3,4-b]pyridin-4-yl)spiro[4,7-dihydropyrazolo[5,1-c][1,4]oxazine-6,2′-cyclopropane]]"
6.99,8.30,"Cc1cc(-c2c(-c3ccc(F)cc3)nn3c2[C@@H]2CC[C@H]3C2)c2cn[nH]c2n1 (single isomer, unassigned) [Example 364, (4*R,7*S)-2-(4-Fluorophenyl)-3-(6-methyl-1H-pyrazolo[3,4-b]pyridin-4-yl)-4,5,6,7-tetrahydro-4,7-methanopyrazolo[1,5-a]pyridine]"
6.76,7.60,"Cc1nc2[nH]nc(C)c2c(-c2c(-c3ccc(F)cn3)nn3c2CC[C@@H]2C[C@@H]23)c1F (single isomer, unassigned) [Example 346, (5a*R,6a*S)-3-(5-Fluoro-3,6-dimethyl-1H-pyrazolo[3,4-b]pyridin-4-yl)-2-(5-fluoropyridin-2-yl)-5,5a,6,6a-tetrahydro-4H-cyclopropa[e]pyrazolo[1,5-a]pyridine]"
6.73,7.59,"Fc1ccc(-c2nn3c(c2-c2ccnc4[nH]ncc24)CC2(C3)CC2(F)F)cc1 (single isomer, unassigned) [Example 251, (*R)-1′,1′-Difluoro-2-(4-fluorophenyl)-3-(1H-pyrazolo[3,4-b]pyridin-4-yl)spiro[4,6-dihydropyrrolo[1,2-b]pyrazole-5,2′-cyclopropane]]"
7.24,8.22,"Cc1cc(-c2c(-c3ccc(F)cn3)nn3c2CCC2CC23)c2cn[nH]c2n1 (racemic) [Example 57, (Racemic) 2-(5-Fluoropyridin-2-yl)-3-(6-methyl-1H-pyrazolo[3,4-b]pyridin-4-yl)-5,5a,6,6a-tetrahydro-4H-cyclopropa[e]pyrazolo[1,5-a]pyridine]"
8.22,9.00,"C[C@@H]1n2nc(-c3ccc(F)cc3)c(-c3ccnc4[nH]ncc34)c2COC1(C)C (single isomer, unassigned) [Example 171]"
7.72,8.40,"Fc1ccc(-c2nn3c(c2-c2c(F)cnc4[nH]ncc24)CCC(F)(F)C3)cc1 [Example 280, 4-(6,6-difluoro-2-(4-fluorophenyl)-4,5,6,7-tetrahydropyrazolo[1,5-a]pyridin-3-yl)-5-fluoro-1H-pyrazolo[3,4-b]pyridine]"
5.39,6.62,"CC1(CF)CCc2c(-c3cc(F)ncc3F)c(-c3ccc(F)cn3)nn2C1 (racemic) [Example 288, 3-(2,5-Difluoro-4-pyridyl)-6-(fluoromethyl)-2-(5-fluoro-2-pyridyl)-6-methyl-5,7-dihydro-4H-pyrazolo[1,5-a]pyridine]"
8.10,9.00,"Fc1ccc(-c2nn3c(c2-c2ccnc4[nH]ncc24)CCC2(C3)CC2(F)F)nc1 (single isomer, unassigned) [Example 328, (*R)-2,2-Difluoro-2′-(5-fluoropyridin-2-yl)-3′-(1H-pyrazolo[3,4-b]pyridin-4-yl)-4′,5′-dihydro-7′H-spiro[cyclopropane-1,6′-pyrazolo[1,5-a]pyridine]]"

SMILES,pIC50 (human CSNK1D),pIC50 [1]
"Fc1ccc(-c2nn3c(c2-c2ccnc4[nH]ncc24)COCC3)nc1 [Example 78, 2-(5-Fluoro-2-pyridyl)-3-(1H-pyrazolo[3,4-b]pyridin-4-yl)-6,7-dihydro-4H-pyrazolo[5,1-c][1,4]oxazine]",6.47,7.82
